ChEMBL document CHEMBL1909046, “DrugMatrix in vitro pharmacology data”

How the values were obtained:
[1] = biological target: Epidermal growth factor receptor (Homo sapiens, UniProt P00533); test: DRUGMATRIX: Protein Tyrosine Kinase, EGF Receptor enzyme inhibition (substrate: Poly(Glu:Tyr)); format: cell-based, Insect cells; conditions: insect cells, Not Active = under 50% inhibition at 10 µM
[2] = DRUGMATRIX: Platelet-Derived Growth Factor (PDGF) radioligand binding (ligand: [125I] PDGF); format: cell-based; conditions: nih3t3; Not Active = under 50% inhibition at 10 µM
Estrogen receptor beta = Estrogen receptor beta (Homo sapiens, UniProt Q92731); conditions: sf9; also: in other assays of this panel Not Active means under 50% inhibition at 10 µM
[3] = biological target: Protein kinase C alpha type (Homo sapiens, UniProt P17252); format: cell-based; conditions: sf9;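 also: inhibition of PKCalpha kinase activity measured in an enzyme assay with histone as the phosphorylation substrate; in other assays of this panel Not Active means under 50% inhibition at 10 µM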
[4] = biological target: Platelet-activating factor receptor (Homo sapiens, UniProt P25105); test: biochemical; format: tissue-based; conditions: platelet; also: in other assays of this panel Not Active means under 50% inhibition at 10 µM
[5] = biological target: Sigma non-opioid intracellular receptor 1 (Homo sapiens, UniProt Q99720); test: DRUGMATRIX: Sigma1 radioligand binding (ligand: [3H] Haloperidol); format: cell membranes, Jurkat, Membrane; conditions: jurkat; Not Active = under 50% inhibition at 10 µM
[6] = biological target: T1, C-X-C chemokine receptor type 2 (Homo sapiens, UniProt P25025); format: cell membranes, Membrane; conditions: cho-k1; also: in other assays of this panel Not Active means under 50% inhibition at 10 µM
T1 sequence (P25025 whole entry): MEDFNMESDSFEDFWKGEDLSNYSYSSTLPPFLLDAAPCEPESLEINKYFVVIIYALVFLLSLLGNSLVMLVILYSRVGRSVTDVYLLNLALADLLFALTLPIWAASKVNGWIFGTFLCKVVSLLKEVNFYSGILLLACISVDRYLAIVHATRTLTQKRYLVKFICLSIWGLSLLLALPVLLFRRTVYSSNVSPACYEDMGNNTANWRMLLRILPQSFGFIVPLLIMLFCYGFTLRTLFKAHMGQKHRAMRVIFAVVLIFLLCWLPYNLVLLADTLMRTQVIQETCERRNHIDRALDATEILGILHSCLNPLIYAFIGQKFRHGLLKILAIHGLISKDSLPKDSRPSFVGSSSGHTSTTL

[7] = DRUGMATRIX: Tumor Necrosis Factor (TNF), Non-Selective radioligand binding (ligand: [125I] TNF-alpha); format: cell membranes, Membrane; conditions: u-937; Not Active = under 50% inhibition at 10 µM
Cytochrome P450 2C9 = Cytochrome P450 2C9 (Homo sapiens, UniProt P11712); conditions: bti-tn-5b1-4; also: in other assays of this panel Not Active means under 50% inhibition at 10 µM
[8] = DRUGMATRIX: Glutamate, NMDA, Phencyclidine radioligand binding (ligand: [3H] TCP); format: cell membranes, Rattus norvegicus, Wistar, Cerebral cortex, Membrane; conditions: Not Active = under 50% inhibition at 10 µM
[9] = biological target: T2, Muscarinic acetylcholine receptor M5 (Homo sapiens, UniProt P08912); format: cell membranes, CHO-K1, Membrane; conditions: cho-k1; also: in other assays of this panel Not Active means under 50% inhibition at 10 µM
T2 sequence (P08912 whole entry): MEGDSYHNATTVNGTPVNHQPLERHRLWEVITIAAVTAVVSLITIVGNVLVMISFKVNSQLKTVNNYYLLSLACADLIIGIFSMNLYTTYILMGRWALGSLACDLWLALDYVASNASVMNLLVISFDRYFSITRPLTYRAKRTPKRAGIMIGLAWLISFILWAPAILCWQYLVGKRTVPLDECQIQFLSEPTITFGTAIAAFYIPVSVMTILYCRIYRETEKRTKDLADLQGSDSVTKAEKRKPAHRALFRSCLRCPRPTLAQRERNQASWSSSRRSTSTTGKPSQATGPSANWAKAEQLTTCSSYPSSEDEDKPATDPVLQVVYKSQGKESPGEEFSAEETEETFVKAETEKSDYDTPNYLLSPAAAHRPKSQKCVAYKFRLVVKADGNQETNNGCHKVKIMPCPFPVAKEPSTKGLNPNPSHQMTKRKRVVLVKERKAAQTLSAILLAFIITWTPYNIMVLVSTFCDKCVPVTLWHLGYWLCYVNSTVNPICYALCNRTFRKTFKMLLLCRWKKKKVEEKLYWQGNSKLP

Leukotriene C4 synthase = biological target: T3, Leukotriene C4 synthase (Cavia porcellus, UniProt A6XA80); test: biochemical; format: tissue-based, Lung
T3 sequence (A6XA80 whole entry): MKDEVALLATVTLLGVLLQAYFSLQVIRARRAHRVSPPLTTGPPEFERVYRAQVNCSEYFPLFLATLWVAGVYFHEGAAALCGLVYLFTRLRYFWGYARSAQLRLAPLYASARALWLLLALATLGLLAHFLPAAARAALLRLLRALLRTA

Nitric oxide synthase 1 = Nitric oxide synthase 1 (Rattus norvegicus, UniProt P29476); format: tissue-based, Cerebellum; also: in other assays of this panel Not Active means under 50% inhibition at 10 µM
Cytochrome P450 2D6 = Cytochrome P450 2D6 (Homo sapiens, UniProt P10635); conditions: bti-tn-5b1-4; also: in other assays of this panel Not Active means under 50% inhibition at 10 µM
[10] = biological target: 5-hydroxytryptamine receptor 4 (Cavia porcellus, UniProt O70528); format: cell membranes, Dunkin-Hartley, Striatum, Membrane; also: in other assays of this panel Not Active means under 50% inhibition at 10 µM
Sequence of 5-hydroxytryptamine receptor 4 (O70528 whole entry): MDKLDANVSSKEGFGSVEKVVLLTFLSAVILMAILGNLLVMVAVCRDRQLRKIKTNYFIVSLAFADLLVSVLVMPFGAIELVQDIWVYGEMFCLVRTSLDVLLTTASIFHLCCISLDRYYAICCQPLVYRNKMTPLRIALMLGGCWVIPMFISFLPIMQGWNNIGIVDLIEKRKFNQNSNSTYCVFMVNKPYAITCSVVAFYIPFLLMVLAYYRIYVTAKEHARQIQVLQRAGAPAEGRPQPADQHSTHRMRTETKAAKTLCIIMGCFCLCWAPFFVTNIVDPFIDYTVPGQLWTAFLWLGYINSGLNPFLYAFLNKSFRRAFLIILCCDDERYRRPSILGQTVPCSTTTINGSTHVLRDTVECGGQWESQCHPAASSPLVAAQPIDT

Sequence of Platelet-activating factor receptor (P25105 whole entry): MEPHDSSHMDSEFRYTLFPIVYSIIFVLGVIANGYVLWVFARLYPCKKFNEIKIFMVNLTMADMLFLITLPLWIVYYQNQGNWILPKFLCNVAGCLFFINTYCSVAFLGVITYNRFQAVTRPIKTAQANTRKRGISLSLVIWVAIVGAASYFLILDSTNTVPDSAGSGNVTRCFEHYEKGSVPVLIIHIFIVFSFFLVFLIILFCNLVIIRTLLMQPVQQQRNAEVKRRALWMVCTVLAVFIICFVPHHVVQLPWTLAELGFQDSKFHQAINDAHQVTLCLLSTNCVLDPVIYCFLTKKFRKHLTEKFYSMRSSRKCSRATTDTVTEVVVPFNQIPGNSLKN
Sequence of Nitric oxide synthase 1 (P29476 whole entry): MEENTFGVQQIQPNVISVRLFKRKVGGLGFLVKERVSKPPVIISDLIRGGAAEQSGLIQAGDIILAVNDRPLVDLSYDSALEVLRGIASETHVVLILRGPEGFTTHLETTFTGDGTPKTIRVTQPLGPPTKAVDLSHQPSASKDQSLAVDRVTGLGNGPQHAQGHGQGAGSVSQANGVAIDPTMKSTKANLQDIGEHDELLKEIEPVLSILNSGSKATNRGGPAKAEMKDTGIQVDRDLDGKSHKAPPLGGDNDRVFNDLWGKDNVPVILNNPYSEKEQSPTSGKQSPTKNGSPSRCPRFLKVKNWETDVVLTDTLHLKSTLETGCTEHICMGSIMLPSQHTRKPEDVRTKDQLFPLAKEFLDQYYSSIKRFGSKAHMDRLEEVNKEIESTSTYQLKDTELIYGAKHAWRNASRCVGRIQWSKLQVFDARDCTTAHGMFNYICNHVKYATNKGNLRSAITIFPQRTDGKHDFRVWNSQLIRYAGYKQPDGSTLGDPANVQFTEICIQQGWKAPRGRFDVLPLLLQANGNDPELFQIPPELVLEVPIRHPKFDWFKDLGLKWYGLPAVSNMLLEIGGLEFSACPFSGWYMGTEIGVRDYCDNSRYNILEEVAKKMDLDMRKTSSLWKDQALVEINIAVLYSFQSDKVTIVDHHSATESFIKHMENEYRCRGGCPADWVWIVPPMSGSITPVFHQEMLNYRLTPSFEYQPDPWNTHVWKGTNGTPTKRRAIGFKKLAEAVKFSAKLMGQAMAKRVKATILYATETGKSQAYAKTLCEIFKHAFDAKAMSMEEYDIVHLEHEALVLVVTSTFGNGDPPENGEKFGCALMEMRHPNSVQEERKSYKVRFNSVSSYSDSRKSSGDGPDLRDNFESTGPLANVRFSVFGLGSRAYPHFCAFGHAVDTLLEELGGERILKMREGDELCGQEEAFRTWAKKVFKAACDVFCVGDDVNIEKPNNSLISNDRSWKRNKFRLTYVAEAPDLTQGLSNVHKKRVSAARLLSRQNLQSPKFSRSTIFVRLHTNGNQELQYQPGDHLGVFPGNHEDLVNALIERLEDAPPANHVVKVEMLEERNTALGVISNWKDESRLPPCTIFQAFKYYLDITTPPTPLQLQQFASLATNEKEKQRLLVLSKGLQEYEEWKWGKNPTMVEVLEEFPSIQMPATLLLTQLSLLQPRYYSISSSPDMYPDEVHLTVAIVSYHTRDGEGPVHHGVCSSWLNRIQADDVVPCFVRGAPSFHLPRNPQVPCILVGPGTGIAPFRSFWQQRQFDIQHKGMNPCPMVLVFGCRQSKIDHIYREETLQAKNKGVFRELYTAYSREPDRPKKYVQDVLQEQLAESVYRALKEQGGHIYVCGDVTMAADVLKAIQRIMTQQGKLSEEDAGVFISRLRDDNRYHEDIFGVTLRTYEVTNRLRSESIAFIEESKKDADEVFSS
Sequence of Cytochrome P450 2C9 (P11712 whole entry): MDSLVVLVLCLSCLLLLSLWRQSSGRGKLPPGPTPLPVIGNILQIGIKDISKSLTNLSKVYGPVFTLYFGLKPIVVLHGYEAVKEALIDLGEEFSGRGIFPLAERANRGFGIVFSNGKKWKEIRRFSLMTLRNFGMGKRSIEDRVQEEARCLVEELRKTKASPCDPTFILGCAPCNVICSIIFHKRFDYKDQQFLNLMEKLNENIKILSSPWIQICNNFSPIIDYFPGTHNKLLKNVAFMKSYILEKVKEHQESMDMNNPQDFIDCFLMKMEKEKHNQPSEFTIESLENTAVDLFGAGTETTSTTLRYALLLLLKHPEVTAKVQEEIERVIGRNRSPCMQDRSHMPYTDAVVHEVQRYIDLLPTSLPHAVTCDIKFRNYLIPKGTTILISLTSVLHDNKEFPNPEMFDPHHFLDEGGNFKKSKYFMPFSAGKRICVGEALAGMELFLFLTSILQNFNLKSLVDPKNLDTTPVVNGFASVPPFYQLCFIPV
Sequence of Estrogen receptor beta (Q92731 whole entry): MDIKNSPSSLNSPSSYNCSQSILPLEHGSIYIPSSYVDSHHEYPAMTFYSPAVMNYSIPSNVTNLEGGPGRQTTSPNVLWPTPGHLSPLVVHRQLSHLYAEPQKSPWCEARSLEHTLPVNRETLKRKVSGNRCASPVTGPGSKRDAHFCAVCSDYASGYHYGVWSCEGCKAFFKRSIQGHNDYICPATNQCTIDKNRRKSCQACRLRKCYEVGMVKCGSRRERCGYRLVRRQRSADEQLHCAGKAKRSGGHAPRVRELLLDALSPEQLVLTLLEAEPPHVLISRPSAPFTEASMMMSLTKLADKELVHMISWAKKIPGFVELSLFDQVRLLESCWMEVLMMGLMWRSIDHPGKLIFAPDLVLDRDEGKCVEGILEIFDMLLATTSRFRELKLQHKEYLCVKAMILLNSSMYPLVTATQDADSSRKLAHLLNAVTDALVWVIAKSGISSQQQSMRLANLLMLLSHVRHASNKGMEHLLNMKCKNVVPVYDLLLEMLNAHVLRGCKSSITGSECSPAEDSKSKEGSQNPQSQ
Sequence of Cytochrome P450 2D6 (P10635 whole entry): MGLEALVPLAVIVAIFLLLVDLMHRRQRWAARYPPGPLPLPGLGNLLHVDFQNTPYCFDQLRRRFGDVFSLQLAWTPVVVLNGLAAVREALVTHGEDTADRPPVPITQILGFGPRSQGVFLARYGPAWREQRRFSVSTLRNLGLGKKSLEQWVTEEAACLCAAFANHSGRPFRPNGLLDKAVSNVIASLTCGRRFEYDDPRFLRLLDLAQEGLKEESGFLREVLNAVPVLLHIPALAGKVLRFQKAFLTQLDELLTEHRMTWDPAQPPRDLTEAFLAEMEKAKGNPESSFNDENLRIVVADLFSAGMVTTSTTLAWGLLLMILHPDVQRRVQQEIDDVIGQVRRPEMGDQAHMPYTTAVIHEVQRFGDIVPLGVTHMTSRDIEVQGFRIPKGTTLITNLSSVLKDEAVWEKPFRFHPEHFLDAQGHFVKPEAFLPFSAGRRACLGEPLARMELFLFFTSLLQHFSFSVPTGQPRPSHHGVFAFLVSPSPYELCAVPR
Sequence of Sigma non-opioid intracellular receptor 1 (Q99720 whole entry): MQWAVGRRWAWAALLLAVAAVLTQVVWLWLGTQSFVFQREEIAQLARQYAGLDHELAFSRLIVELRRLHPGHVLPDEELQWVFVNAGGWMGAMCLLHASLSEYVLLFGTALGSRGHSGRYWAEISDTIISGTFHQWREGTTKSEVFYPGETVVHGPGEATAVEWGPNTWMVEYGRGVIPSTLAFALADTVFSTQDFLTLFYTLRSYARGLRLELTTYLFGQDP

| Compound | IC50 [1] | IC50 [2] | Ki [2] | IC50 (Estrogen receptor beta) | IC50 [3] | IC50 [4] | IC50 [5] | IC50 [6] | IC50 [7] | Ki [7] | IC50 (Cytochrome P450 2C9) | Ki (Cytochrome P450 2C9) | IC50 [8] | Ki [8] | IC50 [9] | IC50 (Leukotriene C4 synthase) | IC50 (Nitric oxide synthase 1) | IC50 (Cytochrome P450 2D6) | Ki (Cytochrome P450 2D6) | IC50 [10] | also measured |
| --- | --- | --- | --- | --- | --- | --- | --- | --- | --- | --- | --- | --- | --- | --- | --- | --- | --- | --- | --- | --- | --- |
| CCC1(c2ccccc2)C(=O)NCNC1=O [PRIMIDONE] | Not Active | Not Active | Not Active | Not Active | Not Active | Not Active | Not Active | Not Active | Not Active | Not Active | Not Active | Not Active | Not Active | Not Active | Not Active | Not Active | Not Active | Not Active | Not Active | Not Active |  |
| CARBOPLATIN | Not Active | Not Active | Not Active | Not Active | Not Active | Not Active | Not Active | Not Active | Not Active | Not Active | Not Active | Not Active | Not Active | Not Active | Not Active | Not Active | Not Active | Not Active | Not Active | Not Active | Ki [1]: Not Active; Ki (Estrogen receptor beta): Not Active; Ki [3]: Not Active; Ki [4]: Not Active; Ki [5]: Not Active; Ki [6]: Not Active; Ki [9]: Not Active; Ki (Leukotriene C4 synthase): Not Active; Ki (Nitric oxide synthase 1): Not Active; Ki [10]: Not Active |
| CISPLATIN |  | Not Active | Not Active | Not Active | Not Active | Not Active | Not Active |  | Not Active | Not Active | Not Active | Not Active | Not Active | Not Active | Not Active | Not Active | Not Active | Not Active | Not Active | Not Active | IC50 ([1]; read-out: IC50): 2.62 µM; Ki (Estrogen receptor beta): Not Active; Ki [3]: Not Active; Ki [4]: Not Active; Ki [5]: Not Active; IC50 ([6]; read-out: IC50): 13.5 µM; Ki ([6]; read-out: Ki): 9.46 µM; Ki [9]: Not Active; Ki (Leukotriene C4 synthase): Not Active; Ki (Nitric oxide synthase 1): Not Active; Ki [10]: Not Active |
| OXALIPLATIN | Not Active | Not Active | Not Active | Not Active | Not Active | Not Active | Not Active | Not Active | Not Active | Not Active | Not Active | Not Active | Not Active | Not Active | Not Active | Not Active | Not Active | Not Active | Not Active | Not Active | Ki [1]: Not Active; Ki (Estrogen receptor beta): Not Active; Ki [3]: Not Active; Ki [4]: Not Active; Ki [5]: Not Active; Ki [6]: Not Active; Ki [9]: Not Active; Ki (Leukotriene C4 synthase): Not Active; Ki (Nitric oxide synthase 1): Not Active; Ki [10]: Not Active |
